Experimental data reported in ChEMBL document CHEMBL1141695, “Discovery of thieno[2,3-c]pyridines as potent COT inhibitors” (Bioorg Med Chem Lett, 2008).

Tests used:
[1] = target: T1, Mitogen-activated protein kinase kinase kinase 8 (Homo sapiens, UniProt P41279); assay: Inhibition of human recombinant COT by HTRF-based assay
[2] = target: Dual specificity mitogen-activated protein kinase kinase 1 (Homo sapiens, UniProt Q02750); assay: Inhibition of MEK1 by HTRF assay
[3] = target: T1, Mitogen-activated protein kinase kinase kinase 8; assay: Inhibition of COT by cell-based HTRF assay
[4] = Inhibition of ERK phosphorylation in LPS-stimulated mouse PEC by HTRF assay

T1 sequence (P41279 whole entry): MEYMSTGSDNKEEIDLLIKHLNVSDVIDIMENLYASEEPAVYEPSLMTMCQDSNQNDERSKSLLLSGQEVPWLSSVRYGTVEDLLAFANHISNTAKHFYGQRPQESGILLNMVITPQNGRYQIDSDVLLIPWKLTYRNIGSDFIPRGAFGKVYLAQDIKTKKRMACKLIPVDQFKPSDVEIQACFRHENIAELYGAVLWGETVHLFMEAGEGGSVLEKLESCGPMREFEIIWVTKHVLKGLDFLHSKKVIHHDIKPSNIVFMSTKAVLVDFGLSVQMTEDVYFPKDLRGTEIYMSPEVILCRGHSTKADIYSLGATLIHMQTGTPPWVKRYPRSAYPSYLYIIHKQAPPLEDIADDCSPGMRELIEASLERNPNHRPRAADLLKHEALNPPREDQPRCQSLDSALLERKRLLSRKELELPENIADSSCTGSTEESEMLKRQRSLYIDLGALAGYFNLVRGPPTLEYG
Sequence of Dual specificity mitogen-activated protein kinase kinase 1 (Q02750 whole entry): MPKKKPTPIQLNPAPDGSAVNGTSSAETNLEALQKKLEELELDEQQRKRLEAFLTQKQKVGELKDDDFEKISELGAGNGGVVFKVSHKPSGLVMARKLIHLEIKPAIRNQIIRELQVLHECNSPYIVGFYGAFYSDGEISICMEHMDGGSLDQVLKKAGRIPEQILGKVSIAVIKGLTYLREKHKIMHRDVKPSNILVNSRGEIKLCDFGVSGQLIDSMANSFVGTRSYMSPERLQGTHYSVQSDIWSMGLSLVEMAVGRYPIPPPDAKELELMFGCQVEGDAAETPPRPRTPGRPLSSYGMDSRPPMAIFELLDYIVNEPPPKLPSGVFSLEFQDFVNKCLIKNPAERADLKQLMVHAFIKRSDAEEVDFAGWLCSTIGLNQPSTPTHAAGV

Row | SMILES | IC50 [1] [nM] | IC50 [2] [nM] | IC50 [3] [nM] | IC50 [4] [nM]
1 | O=c1nc(-c2cc3c(Oc4ccc(I)cc4)cncc3s2)[nH]o1 | 1120 | – | – | –
2 | FC(F)(F)c1ccc(-c2ccc(Oc3cncc4sc(-c5nn[nH]n5)cc34)cc2)cc1 | 280 | 1800 | 560 | 1700
3 | OCc1ccc(-c2ccc(Oc3cncc4sc(-c5nnn[nH]5)cc34)cc2)cc1 | 40 | 14000 | – | –
4 | Cc1ccc(Oc2cncc3sc(-c4nn[nH]n4)cc23)cc1 | 7500 | – | – | –
5 | CC(=O)Nc1cc2c(Oc3ccc(I)cc3)cncc2s1 | > 50000 | – | – | –
6 | COc1ccc(-c2ccc(Oc3cncc4sc(-c5nn[nH]n5)cc34)cc2)cc1 | 130 | 49000 | – | –
7 | Clc1cccc(-c2ccc(Oc3cncc4sc(-c5nn[nH]n5)cc34)cc2)c1 | 120 | 1900 | – | > 50000
8 | Brc1ccc(Oc2cncc3sc(-c4nnn[nH]4)cc23)cc1 | 1600 | – | – | –
9 | O=C(O)c1cc2c(Oc3ccc(I)cc3)cncc2s1 | 940 | – | – | –
10 | Clc1ccc(Oc2cncc3sc(-c4nnn[nH]4)cc23)cc1 | 710 | – | – | –
11 | c1ccc(-c2ccccc2Oc2cncc3sc(-c4nn[nH]n4)cc23)cc1 | 15000 | – | – | –
12 | Clc1ccccc1-c1ccc(Oc2cncc3sc(-c4nn[nH]n4)cc23)cc1 | 150 | 1500 | – | > 50000
13 | Clc1ccc(-c2ccc(Oc3cncc4sc(-c5nn[nH]n5)cc34)cc2)cc1 | 90 | 2400 | 2100 | > 50000
14 | c1ccc(-c2ccc(Oc3cncc4sc(-c5nn[nH]n5)cc34)cc2)cc1 | 150 | 9700 | 4300 | 12000
15 | c1ccc(-c2cccc(Oc3cncc4sc(-c5nn[nH]n5)cc34)c2)cc1 | 1700 | – | – | –
16 | NC(=O)c1ccc(-c2ccc(Oc3cncc4sc(-c5nn[nH]n5)cc34)cc2)cc1 | 10 | 18000 | 130 | –
17 | COc1cccc(-c2ccc(Oc3cncc4sc(-c5nnn[nH]5)cc34)cc2)c1 | 240 | 23000 | – | –
18 | Nc1ccc(-c2ccc(Oc3cncc4sc(-c5nn[nH]n5)cc34)cc2)cc1 | 230 | 1500 | – | 1100
19 | Fc1ccc(-c2ccc(Oc3cncc4sc(-c5nn[nH]n5)cc34)cc2)cc1 | 170 | 7600 | 6500 | 11300
20 | N#Cc1ccc(-c2ccc(Oc3cncc4sc(-c5nn[nH]n5)cc34)cc2)cc1 | 310 | 21200 | – | 47000
21 | Ic1ccc(Oc2cncc3sc(-c4nn[nH]n4)cc23)cc1 | 410 | – | – | –
22 | c1ccc(Oc2cncc3sc(-c4nn[nH]n4)cc23)cc1 | 2200 | – | – | –
23 | COc1ccccc1-c1ccc(Oc2cncc3sc(-c4nnn[nH]4)cc23)cc1 | 320 | 21800 | – | –
24 | CN(C)C(=O)c1ccc(-c2ccc(Oc3cncc4sc(-c5nn[nH]n5)cc34)cc2)cc1 | 50 | 48000 | – | > 50000
25 | Nc1cc2c(Oc3ccc(I)cc3)cncc2s1 | > 50000 | – | – | –
26 | CC(C)(C)c1ccc(Oc2cncc3sc(-c4nn[nH]n4)cc23)cc1 | 610 | – | – | –
27 | O=C(NO)c1cc2c(Oc3ccc(I)cc3)cncc2s1 | 540 | – | – | –
